Data reported in patent US20230406885A1, “CYCLIC PEPTIDES FOR TRAPPING INTERLEUKIN-1 BETA” (MERCK SHARP & DOHME LLC, priority 2022, published 2023).
*1 amine or outer side, *2 acyl side, *3 side chain or, on linkers, in order; H or OH if unused. Where a SMILES comes first, the peptide text is derived from it. [ ]: non-standard residue; d: D form. Trp(4-Cl)(βS-Me) = C[C@@H](c1c[nH]c2cccc(Cl)c12)[C@H](N)C(=O)O; Bip(4'-COOH) = N[C@@H](Cc1ccc(-c2ccc(C(=O)O)cc2)cc1)C(=O)O; 1Nal(3S-Me) = C[C@@H](c1cccc2ccccc12)[C@H](N)C(=O)O; X8 = O=C([C@H](CCc1cccc(C(F)(F)F)c1)N[*:1])[*:2]; Phe(4-COOH) = N[C@@H](Cc1ccc(C(=O)O)cc1)C(=O)O; X10 = O=C([C@H](CC1CCC(F)(F)CC1)N[*:1])[*:2]; h3Pal(5-CN) = N#Cc1cncc(CC[C@H](N)C(=O)O)c1; Phe(4-NH2) = Nc1ccc(C[C@H](N)C(=O)O)cc1; Pro(4R-NH2) = N[C@H]1CN[C@H](C(=O)O)C1; X7 = O=C([C@H](CCN1CCOCC1)N[*:1])[*:2]; 1Nal = N[C@@H](Cc1cccc2ccccc12)C(=O)O; AEF = NCCOc1ccc(C[C@H](N)C(=O)O)cc1; hTyr = N[C@@H](CCc1ccc(O)cc1)C(=O)O; hPhe = N[C@@H](CCc1ccccc1)C(=O)O; 4Pal = N[C@@H](Cc1ccncc1)C(=O)O; dDab = NCC[C@@H](N)C(=O)O; Orn = NCCC[C@H](N)C(=O)O; dNMeA = CN[C@H](C)C(=O)O; Dab = NCC[C@H](N)C(=O)O; Nva = CCC[C@H](N)C(=O)O; Dap = NC[C@H](N)C(=O)O; Aib = CC(C)(N)C(=O)O

Target: T1, Recombinant human IL-1β (Homo sapiens, UniProt P01584)
T1 construct: purchased BioLegend 579404
Test: IL-6 assay in MRC5 cells: inhibition of IL-1β induced IL-6 secretion (AlphaLISA)
Assay type: cell-based
Conditions: inhibition of IL-1β induced IL-6 secretion in MRC5 cells; read-out: MRC5 IC50
Method in brief: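 IL-1β at 2×EC80 in seeding medium (EMEM, 0.025% BSA) preincubated 1 h at ambient temperature with compound, then 3000 MRC5 cells/well added and incubated overnight at 37 °C, 5% CO2. IL-6 in conditioned medium quantified by AlphaLISA; IC50 from 4-parameter logistic fit.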

T1 sequence (P01584 117-269): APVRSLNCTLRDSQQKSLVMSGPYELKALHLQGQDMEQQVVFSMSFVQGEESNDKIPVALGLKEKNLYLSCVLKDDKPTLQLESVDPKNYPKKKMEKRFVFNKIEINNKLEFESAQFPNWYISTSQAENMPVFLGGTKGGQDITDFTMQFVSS

| SMILES | IC50 |
| --- | --- |
| CC(=O)NCCOc1ccc(C[C@@H]2NC(=O)[C@H](CCc3ccc(O)cc3)NC(=O)[C@@H](C)NC(=O)[C@H](CN)NC(=O)[C@H](Cc3c[nH]c4ccccc34)NC(=O)[C@H](Cc3ccc(-c4ccc(C(=O)O)cc4)cc3)NC(=O)CNC(=O)[C@@H](C)N(C)C(=O)[C@H](CC(N)=O)NC(=O)[C@H]([C@@H](C)c3cccc4ccccc34)NC(=O)[C@@H]3C[C@@H](N)CN3C(=O)CNC(=O)[C@H](Cc3ccc(C(=O)O)cc3)NC(=O)[C@H](Cc3c[nH]c4ccccc34)NC2=O)cc1 [Example 129] (cyclo([AEF](Ac)W[Phe(4-COOH)]G[Pro(4R-NH2)][1Nal(3S-Me)]N[dNMeA]G[Bip(4'-COOH)]W[Dap][dA][hTyr])) | 82.8 pM |
| CC(=O)NCCOc1ccc(C[C@@H]2NC(=O)[C@H](CCc3cncc(C#N)c3)NC(=O)C(C)(C)NC(=O)[C@H](CN)NC(=O)[C@H](Cc3cccc4ccccc34)NC(=O)[C@H](Cc3ccc(-c4ccc(C(=O)O)cc4)cc3)NC(=O)CNC(=O)[C@@H](C)N(C)C(=O)[C@H](CC(=O)O)NC(=O)[C@H]([C@@H](C)c3c[nH]c4cccc(Cl)c34)NC(=O)[C@@H]3C[C@@H](N)CN3C(=O)CNC(=O)[C@H](Cc3ccc(C(=O)O)cc3)NC(=O)[C@H](Cc3c[nH]c4ccccc34)NC2=O)cc1 [Example 130] (cyclo([AEF](Ac)W[Phe(4-COOH)]G[Pro(4R-NH2)][Trp(4-Cl)(βS-Me)]D[dNMeA]G[Bip(4'-COOH)][1Nal][Dap][Aib][h3Pal(5-CN)])) | 114 pM |
| CC(=O)NCCOc1ccc(C[C@@H]2NC(=O)CNC(=O)C(C)(C)NC(=O)[C@H](CCCN)NC(=O)[C@H](Cc3cccc4ccccc34)NC(=O)[C@H](Cc3ccc(-c4ccc(C(=O)O)cc4)cc3)NC(=O)CNC(=O)[C@@H](C)N(C)C(=O)[C@H](CC(=O)O)NC(=O)[C@H]([C@@H](C)c3c[nH]c4cccc(Cl)c34)NC(=O)[C@@H]3C[C@@H](N)CN3C(=O)CNC(=O)[C@H](Cc3ccc(C(=O)O)cc3)NC(=O)[C@H](Cc3c[nH]c4ccccc34)NC2=O)cc1 [Example 132] (cyclo([AEF](Ac)W[Phe(4-COOH)]G[Pro(4R-NH2)][Trp(4-Cl)(βS-Me)]D[dNMeA]G[Bip(4'-COOH)][1Nal][Orn][Aib]G)) | 370 pM |
| CC(=O)NCCOc1ccc(C[C@@H]2NC(=O)[C@H](Cc3ccc(N)cc3)NC(=O)[C@@H](C)NC(=O)[C@H](CO)NC(=O)[C@H](Cc3cccc4ccccc34)NC(=O)[C@H](Cc3ccc(-c4ccc(C(=O)O)cc4)cc3)NC(=O)CNC(=O)[C@@H](C)N(C)C(=O)[C@H](CC(=O)O)NC(=O)[C@H]([C@@H](C)c3c[nH]c4cccc(Cl)c34)NC(=O)[C@@H]3C[C@@H](N)CN3C(=O)CNC(=O)[C@H](Cc3ccc(C(=O)O)cc3)NC(=O)[C@H](Cc3c[nH]c4ccccc34)NC2=O)cc1 [Example 133] (cyclo([AEF](Ac)W[Phe(4-COOH)]G[Pro(4R-NH2)][Trp(4-Cl)(βS-Me)]D[dNMeA]G[Bip(4'-COOH)][1Nal]S[dA][Phe(4-NH2)])) | 766 pM |
| CC(=O)NCCOc1ccc(C[C@@H]2NC(=O)[C@H](CCc3ccc(O)cc3)NC(=O)[C@@H](C)NC(=O)[C@H](CC(C)C)NC(=O)[C@H](Cc3ccncc3)NC(=O)[C@H](Cc3ccc(-c4ccc(C(=O)O)cc4)cc3)NC(=O)CNC(=O)[C@@H](C)N(C)C(=O)[C@H](CC(=O)O)NC(=O)[C@H]([C@@H](C)c3c[nH]c4cccc(Cl)c34)NC(=O)[C@@H]3C[C@@H](N)CN3C(=O)CNC(=O)[C@H](Cc3ccc(C(=O)O)cc3)NC(=O)[C@H](Cc3c[nH]c4ccccc34)NC2=O)cc1 [Example 135] (cyclo([AEF](Ac)W[Phe(4-COOH)]G[Pro(4R-NH2)][Trp(4-Cl)(βS-Me)]D[dNMeA]G[Bip(4'-COOH)][4Pal]L[dA][hTyr])) | 310 pM |
| CCC[C@@H]1NC(=O)[C@H](Cc2ccncc2)NC(=O)[C@H](Cc2ccc(-c3ccc(C(=O)O)cc3)cc2)NC(=O)CNC(=O)[C@@H](C)N(C)C(=O)[C@H](CC(=O)O)NC(=O)[C@H]([C@@H](C)c2c[nH]c3cccc(Cl)c23)NC(=O)[C@@H]2C[C@@H](N)CN2C(=O)CNC(=O)[C@H](Cc2ccc(C(=O)O)cc2)NC(=O)[C@H](Cc2c[nH]c3ccccc23)NC(=O)[C@H](Cc2ccc(OCCNC(C)=O)cc2)NC(=O)[C@H](CC2CCC(F)(F)CC2)NC(=O)[C@@H](C)NC1=O [Example 136] (cyclo([AEF](Ac)W[Phe(4-COOH)]G[Pro(4R-NH2)][Trp(4-Cl)(βS-Me)]D[dNMeA]G[Bip(4'-COOH)][4Pal][Nva][dA][X10])) | 396 pM |
| CC(=O)NCCOc1ccc(C[C@@H]2NC(=O)[C@H](CCc3cccc(C(F)(F)F)c3)NC(=O)[C@@H](C)NC(=O)[C@H](CC(C)C)NC(=O)[C@H](CCCCN)NC(=O)[C@H](Cc3ccc(-c4ccc(C(=O)O)cc4)cc3)NC(=O)CNC(=O)[C@@H](C)N(C)C(=O)[C@H](CC(=O)O)NC(=O)[C@H]([C@@H](C)c3c[nH]c4cccc(Cl)c34)NC(=O)[C@@H]3C[C@@H](N)CN3C(=O)CNC(=O)[C@H](Cc3ccc(C(=O)O)cc3)NC(=O)[C@H](Cc3c[nH]c4ccccc34)NC2=O)cc1 [Example 137] (cyclo([AEF](Ac)W[Phe(4-COOH)]G[Pro(4R-NH2)][Trp(4-Cl)(βS-Me)]D[dNMeA]G[Bip(4'-COOH)]KL[dA][X8])) | 93.8 pM |
| CC(=O)NCCOc1ccc(C[C@@H]2NC(=O)[C@H](CCc3ccc(O)cc3)NC(=O)[C@@H](C)NC(=O)[C@H](CO)NC(=O)[C@H](CCCCN)NC(=O)[C@H](Cc3ccc(-c4ccc(C(=O)O)cc4)cc3)NC(=O)CNC(=O)[C@@H](C)N(C)C(=O)[C@H](CC(=O)O)NC(=O)[C@H]([C@@H](C)c3c[nH]c4cccc(Cl)c34)NC(=O)[C@@H]3C[C@@H](N)CN3C(=O)CNC(=O)[C@H](Cc3ccc(C(=O)O)cc3)NC(=O)[C@H](Cc3c[nH]c4ccccc34)NC2=O)cc1 [Example 138] (cyclo([AEF](Ac)W[Phe(4-COOH)]G[Pro(4R-NH2)][Trp(4-Cl)(βS-Me)]D[dNMeA]G[Bip(4'-COOH)]KS[dA][hTyr])) | 214 pM |
| CC(=O)NCCOc1ccc(C[C@@H]2NC(=O)[C@H](CCc3ccc(O)cc3)NC(=O)[C@@H](CCN)NC(=O)[C@H](CO)NC(=O)[C@H](CCCCN)NC(=O)[C@H](Cc3ccc(-c4ccc(C(=O)O)cc4)cc3)NC(=O)CNC(=O)[C@@H](C)N(C)C(=O)[C@H](CC(=O)O)NC(=O)[C@H]([C@@H](C)c3c[nH]c4cccc(Cl)c34)NC(=O)[C@@H]3C[C@@H](N)CN3C(=O)CNC(=O)[C@H](Cc3ccc(C(=O)O)cc3)NC(=O)[C@H](Cc3c[nH]c4ccccc34)NC2=O)cc1 [Example 139] (cyclo([AEF](Ac)W[Phe(4-COOH)]G[Pro(4R-NH2)][Trp(4-Cl)(βS-Me)]D[dNMeA]G[Bip(4'-COOH)]KS[dDab][hTyr])) | 132 pM |

The remaining lines, values ahead:

| IC50 | SMILES |
| --- | --- |
| 49.8 pM | CC(=O)NCCOc1ccc(C[C@@H]2NC(=O)[C@H](CCc3ccc(O)cc3)NC(=O)[C@@H](C)NC(=O)[C@H](CC(C)C)NC(=O)[C@H](Cc3cccc4ccccc34)NC(=O)[C@H](Cc3ccc(-c4ccc(C(=O)O)cc4)cc3)NC(=O)CNC(=O)[C@@H](C)N(C)C(=O)[C@H](CC(=O)O)NC(=O)[C@H]([C@@H](C)c3c[nH]c4cccc(Cl)c34)NC(=O)[C@@H]3C[C@@H](N)CN3C(=O)CNC(=O)[C@H](Cc3ccc(C(=O)O)cc3)NC(=O)[C@H](Cc3c[nH]c4ccccc34)NC2=O)cc1 [Example 131] (cyclo([AEF](Ac)W[Phe(4-COOH)]G[Pro(4R-NH2)][Trp(4-Cl)(βS-Me)]D[dNMeA]G[Bip(4'-COOH)][1Nal]L[dA][hTyr])) |
| 378 pM | CC(=O)NCCOc1ccc(C[C@@H]2NC(=O)[C@H](CCc3ccc(O)cc3)NC(=O)[C@@H](C)NC(=O)[C@H](CCN)NC(=O)[C@H](Cc3ccncc3)NC(=O)[C@H](Cc3ccc(-c4ccc(C(=O)O)cc4)cc3)NC(=O)CNC(=O)[C@@H](C)N(C)C(=O)[C@H](CC(=O)O)NC(=O)[C@H]([C@@H](C)c3c[nH]c4cccc(Cl)c34)NC(=O)[C@@H]3C[C@@H](N)CN3C(=O)CNC(=O)[C@H](Cc3ccc(C(=O)O)cc3)NC(=O)[C@H](Cc3c[nH]c4ccccc34)NC2=O)cc1 [Example 134] (cyclo([AEF](Ac)W[Phe(4-COOH)]G[Pro(4R-NH2)][Trp(4-Cl)(βS-Me)]D[dNMeA]G[Bip(4'-COOH)][4Pal][Dab][dA][hTyr])) |
| 515 pM | CC(=O)NCCOc1ccc(C[C@@H]2NC(=O)CNC(=O)[C@@H](C)NC(=O)[C@H](CCN3CCOCC3)NC(=O)[C@H](Cc3c[nH]c4ccccc34)NC(=O)[C@H](Cc3ccc(-c4ccc(C(=O)O)cc4)cc3)NC(=O)CNC(=O)[C@@H](C)N(C)C(=O)[C@H](CC(=O)O)NC(=O)[C@H]([C@@H](C)c3c[nH]c4cccc(Cl)c34)NC(=O)[C@@H]3C[C@@H](N)CN3C(=O)CNC(=O)[C@H](Cc3ccc(C(=O)O)cc3)NC(=O)[C@H](Cc3c[nH]c4ccccc34)NC2=O)cc1 [Example 140] (cyclo([AEF](Ac)W[Phe(4-COOH)]G[Pro(4R-NH2)][Trp(4-Cl)(βS-Me)]D[dNMeA]G[Bip(4'-COOH)]W[X7][dA]G)) |
| 177 pM | CC(=O)NCCOc1ccc(C[C@@H]2NC(=O)[C@H](CCc3ccc(O)cc3)NC(=O)[C@@H](C)NC(=O)[C@H](CCN3CCOCC3)NC(=O)[C@H](Cc3c[nH]c4ccccc34)NC(=O)[C@H](Cc3ccc(-c4ccc(C(=O)O)cc4)cc3)NC(=O)CNC(=O)[C@@H](C)N(C)C(=O)[C@H](CC(=O)O)NC(=O)[C@H]([C@@H](C)c3c[nH]c4cccc(Cl)c34)NC(=O)[C@@H]3C[C@@H](N)CN3C(=O)CNC(=O)[C@H](Cc3ccc(C(=O)O)cc3)NC(=O)[C@H](Cc3c[nH]c4ccccc34)NC2=O)cc1 [Example 141] (cyclo([AEF](Ac)W[Phe(4-COOH)]G[Pro(4R-NH2)][Trp(4-Cl)(βS-Me)]D[dNMeA]G[Bip(4'-COOH)]W[X7][dA][hTyr])) |
| 159 pM | CC(=O)NCCOc1ccc(C[C@@H]2NC(=O)[C@H](CCc3ccccc3)NC(=O)[C@@H](C)NC(=O)[C@H](CCN)NC(=O)[C@H](Cc3c[nH]c4ccccc34)NC(=O)[C@H](Cc3ccc(-c4ccc(C(=O)O)cc4)cc3)NC(=O)CNC(=O)[C@@H](C)N(C)C(=O)[C@H](CC(=O)O)NC(=O)[C@H]([C@@H](C)c3c[nH]c4cccc(Cl)c34)NC(=O)[C@@H]3C[C@@H](N)CN3C(=O)CNC(=O)[C@H](Cc3ccc(C(=O)O)cc3)NC(=O)[C@H](Cc3c[nH]c4ccccc34)NC2=O)cc1 [Example 142] (cyclo([AEF](Ac)W[Phe(4-COOH)]G[Pro(4R-NH2)][Trp(4-Cl)(βS-Me)]D[dNMeA]G[Bip(4'-COOH)]W[Dab][dA][hPhe])) |
